Measurements reported in patent US20100260680A1, “NOVEL BONE MASS INCREASING AGENT” (ORIENTAL YEAST CO., LTD., priority 2007, published 2010).
Bridges are numbered along the chain shown (N, C = ends). Where no end group is shown, it is not given here.

Key:
C57BL/6CrjCrlj mice = assay: Peptide D administration to mice: bone density (SXA), pQCT and μCT analysis of femur; type: in vivo, mouse
Procedure: A synthetic peptide was used for experiments. Synthetic peptide D is a cyclic peptide comprising the amino acid sequence represented by SEQ ID NO: 7, which consists of 9 amino acids and contains two cysteine residues binding to each other via a disulfide bond. […] The synthetic peptide was dissolved in 10% DMSO (Nacalai)/PBS to a concentration of 1 mg/ml.
Subcutaneous administration of peptide D was carried out in a dose of 10 mg/kg at 8:00, 14:00, and 20:00 (three times daily) for 5 days. 5% DMSO/PBS was administered to the control group. Mice were dissected 12 hour after the completion of administration for 5 days and subjected to exsanguination. Thereafter, the femur and the tibia were collected from each mouse. The whole blood of each mouse was left at room temperature for 1 hour and then centrifuged under conditions of 5000 rpm and 4° C. for 5 min. The serum was collected in a new tube. The femur and the tibia of each mouse were fixed with cold 70% ethanol.
Each femur fixed with ethanol was subjected to single energy X-ray absorptiometry (SXA) analysis (DCS-600EX-IIIR DXA for animals, ALOKA) for determination of bone density, bone mineral content, and bone surface area. The full length of each bone was divided into 20 regions. The bone density for each region was determined and actions of the peptide in each region were analyzed.
Bone structure analysis was carried out by peripheral quantitative computed tomography (hereinafter abbreviated as pQCT) and micro-computed tomography (hereinafter abbreviated as μCT). Scan-Xmate-A080 (Comscantecno Co., Ltd.) was used for μCT and XCT-Research SA+(Stratec Medizintechnik GmbH) was used for pQCT. The dedicated software (3D-BON (RATOC)) was used for preparation of three-dimensional structural image and trabecular structure analysis with the use of μCT data. In addition, for analysis by pQCT, a region with a bone density of 395 mg/cm^3 or less was determined to be cancellous bone and a region with a bone density of 690 mg/cm^3 or more was determined to be cortical bone.

mouse tibia = assay: RT-PCR of osteogenesis markers in tibia of mice given peptide D; type: in vivo; conditions: peptide D acetate 10 mg/kg s.c. three times daily for 5 days
Procedure: Synthetic peptide D subjected to substitution with an acetate was used in this experiment. The synthetic peptide D was dissolved in PBS at a concentration of 1 mg/mL. PBS was administered to a control group.
Subcutaneous administration of synthetic peptide D in the form of acetate was carried out in a dose of 10 mg/kg at 8:00, 14:00, and 20:00 (three times daily) for 5 days. PBS was administered to the control group. Mice were dissected 12 hour after the completion of administration for 5 days and subjected to exsanguination. Thereafter, the femur and the tibia were collected from each mouse. The whole blood of each mouse was left at room temperature for 1 hour and then centrifuged under conditions of 5000 rpm and 4° C. for 5 min. The serum was collected in a new tube. The femur and the tibia of each mouse were fixed with cold 70% ethanol. Muscles and the like were carefully removed from each tibia. Then, each tibia was washed with PBS and cut into 1-mm fragments with scissors, followed by freezing with liquid nitrogen. […]
After cDNA synthesis, as in the case of Example 23, PCR was performed using primers specific to mouse alkaline phosphatase (mALP), mouse type I collagen αI chain (mCollagen αI), and mouse osteocalcin (mOC). […] The obtained images were analyzed with a CSAnalyzer and standardized based on the GAPDH expression levels. […]

[1] = μCT trabecular structure measurement

## peptide D: cyclic peptide of SEQ ID NO: 7, 9 amino acids, two cysteine residues bound via a disulfide bond; binds to RANKL (YCWSQYLCY; disulfide 2-8 (inferred))
C57BL/6CrjCrlj mice; 10 mg/kg s.c. 3 times daily for 5 days
  bone mineral content (SXA, femur): increase in bone mineral content
C57BL/6CrjCrlj mice; 10 mg/kg s.c. 3 times daily for 5 days, p<0.05 vs control group
  bone density (SXA, femur): significant increase in bone density
C57BL/6CrjCrlj mice; 6th to 9th regions from the distal end of the femur, p<0.05 vs control group
  bone density of each region (SXA20 partition analysis): significant increase in bone density
C57BL/6CrjCrlj mice; based on trabecular structure measurement by μCT
  bone resorption inhibition actions: weak actions
C57BL/6CrjCrlj mice; region 5 mm away from the distal end of the femur
  intimal circumference of the cortical bone: shortened
C57BL/6CrjCrlj mice; region 5 mm away from the distal end of the femur, p<0.05 vs control group
  cortical bone density (pQCT): significant increase in cortical bone density
C57BL/6CrjCrlj mice; site 2 mm away from the distal end of the femur
  cancellous bone content (μCT): increased
C57BL/6CrjCrlj mice; [1]
  BV/TV of the cancellous bone: increased
  trabecular width of the cancellous bone: increased
Mouse tibia
  expression levels of mALP, mCollagen αI and mOC in tibia: increase in the expression level of each factor
